Results published in patent US9434734B2, “Substituted pyrazoloquinazolinones and pyrroloquinazolinones as allosteric modulators of group II metabotropic glutamate receptors” (Domain Therapeutics, priority 2012, dated 2016).
pIC50: −log10 of the molar value. Like-named read-outs stand apart in the source and are kept apart here.

Key:
[1] = target: T1, human mGluR2 (hmGluR2) transiently over-expressed in HEK-293 cells (Homo sapiens, UniProt Q14416); assay: Human mGluR2 negative allosteric modulator evaluation using Ca++ functional assay (agonist and NAM activity); assay type: cell-based
T1 construct: expressed in transfected cells; host or cells: HEK-293 cells, transient co-transfection by electroporation
T1 sequence (Q14416 19-872): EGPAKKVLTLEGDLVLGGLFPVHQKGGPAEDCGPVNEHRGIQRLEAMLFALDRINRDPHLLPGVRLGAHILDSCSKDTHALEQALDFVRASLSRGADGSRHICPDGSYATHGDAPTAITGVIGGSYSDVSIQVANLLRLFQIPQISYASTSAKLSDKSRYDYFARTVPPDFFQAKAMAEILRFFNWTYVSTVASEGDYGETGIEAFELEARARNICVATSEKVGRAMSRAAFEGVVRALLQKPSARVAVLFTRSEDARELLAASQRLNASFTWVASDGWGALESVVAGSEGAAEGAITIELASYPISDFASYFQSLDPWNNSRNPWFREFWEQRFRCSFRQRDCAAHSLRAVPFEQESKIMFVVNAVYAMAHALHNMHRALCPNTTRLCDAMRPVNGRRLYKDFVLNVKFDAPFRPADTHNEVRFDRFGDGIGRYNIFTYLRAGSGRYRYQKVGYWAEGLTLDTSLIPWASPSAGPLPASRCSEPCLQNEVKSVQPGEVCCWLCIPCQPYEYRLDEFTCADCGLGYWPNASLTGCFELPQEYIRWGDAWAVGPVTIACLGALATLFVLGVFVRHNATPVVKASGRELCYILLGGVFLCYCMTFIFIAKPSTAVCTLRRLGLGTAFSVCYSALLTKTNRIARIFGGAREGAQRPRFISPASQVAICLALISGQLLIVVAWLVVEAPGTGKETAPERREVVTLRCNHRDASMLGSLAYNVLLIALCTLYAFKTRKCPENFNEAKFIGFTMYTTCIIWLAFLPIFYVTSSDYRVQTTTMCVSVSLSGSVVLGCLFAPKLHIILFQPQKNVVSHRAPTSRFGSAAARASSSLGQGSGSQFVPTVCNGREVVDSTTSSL
Method: Human mGluR2 Negative Allosteric Modulator Evaluation Using Ca^++ Functional Assay
Compounds of the present invention were tested successively for their agonist and negative allosteric modulator activities on human mGluR2 (hmGluR2) transiently over-expressed in HEK-293 cells. They exert agonist activity if they are able to activate mGluR2 by themselves, i.e., in absence of the endogenous agonist glutamate; and they exert negative allosteric modulator activity if they decrease the action of the endogenous agonist glutamate.
HEK-293 cells were maintained in Modified Eagle's Medium supplemented with 10% Foetal Calf Serum, 1% Penicillin/Streptomycin and 1% nonessential amino acids at 37° C./5% CO2.
Cells were plated after transfection onto polyornithine coated, clear bottom, black-walled, 96-well plates and cultured for 24 h.
Receptor activity was detected by changes in intracellular calcium measured using the fluorescent Ca^2+ sensitive dye, Fluo4AM (Molecular Probes).
The day of the assay, medium was aspirated and replaced during 3 hours by medium without serum supplemented with 1% Glutamax, 1% Penicillin/Streptomycin and 1% nonessential amino acids. Then, cells were washed with freshly prepared buffer B (HBSS 1× (PAA), Hepes 20 mM, MgSO4-7H2O 1 mM, Na2CO3 3.3 mM, CaCl2-2H2O 1.3 mM, 0.5% BSA, Probenecid 2.5 mM) and loaded at 37° C./5% CO2 for 1.5 hours with buffer B containing 1 μM Fluo4AM, 0.1 mg/mL Pluronic Acid, 7 μg/mL Glutamate Pyruvate Transaminase and 2 mM sodium pyruvate. Afterwards cells were washed twice with buffer B and 50 μL of this buffer were added to each well.
Agonist and negative allosteric modulator activities of compounds were consecutively evaluated on the same cells plate. […] Then, the cells were stimulated by an EC80 glutamate concentration and fluorescence was recorded for additional 60 s. EC80 glutamate concentration is the concentration giving 80% of the maximal glutamate response. Agonist and/or negative allosteric modulator activity(ies) were evaluated in comparison to basal signal or signal evoked by EC80 glutamate alone, respectively.
For potency determination, a dose-response test was performed using 8 concentrations of each compound of the invention. Dose-response curves were fitted using the sigmoidal dose-response (variable slope) analysis in GraphPad Prism program (Graph Pad Inc) and EC50 of agonist/IC50 of negative allosteric modulator activity was calculated. Dose-response experiments were all performed in duplicate, two times independently.

[2] = hmGluR2 in HEK-293 cells, EC80 glutamate, Fluo4AM calcium readout, read-out: mGluR2 negative allosteric modulator activity IC50

SMILES	pIC50 [1, 2]	melting point [°C]	pIC50 ([1]; N-methylated compounds, statement in description, read-out: IC50 for mGluR2)
Cn1c(=O)c2ccc(-c3cnco3)cc2n2nc(-c3ccccc3)cc12 [Example 21, 4-Methyl-8-oxazol-5-yl-2-phenyl-4H-pyrazolo[1,5-a]quinazolin-5-one]	> 6.00	222 to 225	
Cc1cc(N)ncc1-c1ccc2c(=O)n(C)c3cc(-c4ccccc4)nn3c2c1.Cl [Example 24, 8-(6-Amino-4-methyl-pyridin-3-yl)-4-methyl-2-phenyl-4H-pyrazolo[1,5-a]quinazolin-5-one]	> 6.00	235 to 240	
Cc1nc(N)ccc1-c1ccc2c(=O)n(C)c3cc(-c4ccccc4)nn3c2c1.Cl [Example 25, 8-(6-Amino-2-methyl-pyridin-3-yl)-4-methyl-2-phenyl-4H-pyrazolo[1,5-a]quinazolin-5-one]	> 6.00	218 to 220	
Cc1cc(-c2ccc3c(=O)n(C)c4cc(-c5ccccc5)nn4c3c2)cnc1N.Cl [Example 26, 8-(6-Amino-5-methyl-pyridin-3-yl)-4-methyl-2-phenyl-4H-pyrazolo[1,5-a]quinazolin-5-one]	> 6.00	226 to 227	
CCc1nc(N)ccc1-c1ccc2c(=O)n(C)c3cc(-c4ccccc4)nn3c2c1.Cl [Example 27, 8-(6-Amino-2-ethyl-pyridin-3-yl)-4-methyl-2-phenyl-4H-pyrazolo[1,5-a]quinazolin-5-one]	> 6.00	239 to 240	
Cl.Cn1c(=O)c2ccc(-c3ccc(N)nn3)cc2n2nc(-c3ccccc3)cc12 [Example 29, 8-(6-Amino-pyridazin-3-yl)-4-methyl-2-phenyl-4H-pyrazolo[1,5-a]quinazolin-5-one]	> 6.00	> 250	
Cl.Cn1c(=O)c2ccc(-c3cnc(N)cn3)cc2n2nc(-c3ccccc3)cc12 [Example 30, 8-(5-Amino-pyrazin-2-yl)-4-methyl-2-phenyl-4H-pyrazolo[1,5-a]quinazolin-5-one]	> 6.00	192 to 193	
Cl.Cn1c(=O)c2ccc(-c3cnc(N)nc3)cc2n2nc(-c3ccccc3)cc12 [Example 31, 8-(2-Amino-pyrimidin-5-yl)-4-methyl-2-phenyl-4H-pyrazolo[1,5-a]quinazolin-5-one]	> 6.00	> 250	
Cc1nc(N)cnc1-c1ccc2c(=O)n(C)c3cc(-c4ccccc4)nn3c2c1.Cl [Example 32, 8-(5-Amino-3-methyl-pyrazin-2-yl)-4-methyl-2-phenyl-4H-pyrazolo[1,5-a]quinazolin-5-one]	> 6.00	188 to 189	
Cn1c(=O)c2ccc(-c3cccc(C#N)c3)cc2n2nc(-c3ccccc3)cc12 [Example 35, 3-(4-Methyl-5-oxo-2-phenyl-4,5-dihydro-pyrazolo[1,5-a]quinazolin-8-yl)-benzonitrile]	> 6.00	> 250	
Cc1cc(-c2ccc3c(=O)n(C)c4cc(-c5ccccc5)nn4c3c2)cc(C)n1.Cl [Example 37, 8-(2,6-Dimethyl-pyridin-4-yl)-4-methyl-2-phenyl-4H-pyrazolo[1,5-a]quinazolin-5-one]	> 6.00	> 250	
CN(C)S(=O)(=O)c1cccc(-c2ccc3c(=O)n(C)c4cc(-c5ccccc5)nn4c3c2)c1 [Example 38, N,N-Dimethyl-3-(4-methyl-5-oxo-2-phenyl-4,5-dihydro-pyrazolo[1,5-a]quinazolin-8-yl)-benzenesulfonamide]	> 6.00	202 to 204	> 7.52
CCn1c(=O)c2ccc(-c3cccc(S(=O)(=O)N(C)C)c3)cc2n2nc(-c3ccccc3)cc12 [Example 39, N,N-Dimethyl-3-(4-Ethyl-5-oxo-2-phenyl-4,5-dihydro-pyrazolo[1,5-a]quinazolin-8-yl)-benzenesulfonamide]	> 6.00	197 to 198	
CCCn1c(=O)c2ccc(-c3cccc(S(=O)(=O)N(C)C)c3)cc2n2nc(-c3ccccc3)cc12 [Example 40, N,N-Dimethyl-3-(4-propyl-5-oxo-2-phenyl-4,5-dihydro-pyrazolo[1,5-a]quinazolin-8-yl)-benzenesulfonamide]	> 6.00	112 to 116	
Cc1cncc(-c2ccc3c(=O)n(C)c4cc(-c5cc(C)nc(C)c5)nn4c3c2)c1 [Example 118, 2-(2,6-Dimethyl-pyridin-4-yl)-4-methyl-8-(5-methyl-pyridin-3-yl)-4H-pyrazolo[1,5-a]quinazolin-5-one]	> 6.00		
Cc1cc(-c2cc3n(C)c(=O)c4ccc(-c5cnccc5C)cc4n3n2)cc(C)n1 [Example 119, 2-(2,6-Dimethyl-pyridin-4-yl)-4-methyl-8-(4-methyl-pyridin-3-yl)-4H-pyrazolo[1,5-a]quinazolin-5-one]	> 6.00		
Cc1cc(-c2cc3n(C)c(=O)c4ccc(-c5cccnc5C)cc4n3n2)ccn1 [Example 132, 2-(2-methyl-pyridin-4-yl)-4-methyl-8-(2-methyl-pyridin-3-yl)-4H-pyrazolo[1,5-a]quinazolin-5-one]	> 6.00		
Cc1cc(-c2cc3n(C)c(=O)c4ccc(-c5cc(C)nc(C)c5)cc4n3n2)ccn1 [Example 133, 8-(2,6-Dimethyl-pyridin-4-yl)-4-methyl-2-(2-methyl-pyridin-4-yl)-4H-pyrazolo[1,5-a]quinazolin-5-one]	> 6.00		

Second part, the compound after the results:

pIC50 [1, 2]	melting point [°C]	pIC50 ([1]; N-methylated compounds, statement in description, read-out: IC50 for mGluR2)	SMILES
> 6.00	173 to 175		Cn1c(=O)c2ccc(-c3ccc(N)cc3)cc2n2nc(-c3ccccc3)cc12 [Example 3, 8-(4-Amino-phenyl)-4-methyl-2-phenyl-4H-pyrazolo[1,5-a]quinazolin-5-one]
> 6.00	> 250		Cn1c(=O)c2ccc(-c3cn[nH]c3)cc2n2nc(-c3ccccc3)cc12 [Example 6, 4-Methyl-2-phenyl-8-(1H-pyrazol-4-yl)-4H-pyrazolo[1,5-a]quinazolin-5-one]
> 6.00	> 250		Cn1c(=O)c2ccc(-c3ccc4nccn4c3)cc2n2nc(-c3ccccc3)cc12 [Example 8, 8-Imidazo[1,2-a]pyridin-6-yl-4-methyl-2-phenyl-4H-pyrazolo[1,5-a]quinazolin-5-one]
> 6.00	> 250		Cn1c(=O)c2ccc(-c3ccc(S(N)(=O)=O)cc3)cc2n2nc(-c3ccccc3)cc12 [Example 10, 4-(4-Methyl-5-oxo-2-phenyl-4,5-dihydro-pyrazolo[1,5-a]quinazolin-8-yl)-benzenesulfonamide]
> 6.00	207 to 209		CC(=O)c1cccc(-c2ccc3c(=O)n(C)c4cc(-c5ccccc5)nn4c3c2)c1 [Example 14, 8-(3-Acetyl-phenyl)-4-methyl-2-phenyl-4H-pyrazolo[1,5-a]quinazolin-5-one]
> 6.00	> 250		Cc1n[nH]c(C)c1-c1ccc2c(=O)n(C)c3cc(-c4ccccc4)nn3c2c1 [Example 15, 8-(3,5-Dimethyl-1H-pyrazol-4-yl)-4-methyl-2-phenyl-4H-pyrazolo[1,5-a]quinazolin-5-one]
> 6.00	> 250		Cn1cc(-c2ccc3c(=O)n(C)c4cc(-c5ccccc5)nn4c3c2)cn1 [Example 16, 4-Methyl-8-(1-methyl-1H-pyrazol-4-yl)-2-phenyl-4H-pyrazolo[1,5-a]quinazolin-5-one]
> 6.00	245 to 249		Cn1c(=O)c2ccc(-c3cc[nH]n3)cc2n2nc(-c3ccccc3)cc12 [Example 17, 4-Methyl-2-phenyl-8-(1H-pyrazol-3-yl)-4H-pyrazolo[1,5-a]quinazolin-5-one]
> 6.00	174 to 176		Cc1n[nH]cc1-c1ccc2c(=O)n(C)c3cc(-c4ccccc4)nn3c2c1 [Example 18, 4-Methyl-8-(3-methyl-1H-pyrazol-4-yl)-2-phenyl-4H-pyrazolo[1,5-a]quinazolin-5-one]
> 6.00	> 250		Cn1c(=O)c2ccc(-c3c[nH]nc3C(F)(F)F)cc2n2nc(-c3ccccc3)cc12 [Example 19, 4-Methyl-2-phenyl-8-(3-trifluoromethyl-1H-pyrazol-4-yl)-4H-pyrazolo[1,5-a]quinazolin-5-one]
> 6.00	228 to 231		Cn1c(=O)c2ccc(-c3ncco3)cc2n2nc(-c3ccccc3)cc12 [Example 20, 4-Methyl-8-oxazol-2-yl-2-phenyl-4H-pyrazolo[1,5-a]quinazolin-5-one]
